These compounds were tested against T1, Human PPARα (Homo sapiens, UniProt Q07869) (assay: Human PPARα Reporter Assay (luciferase)). Details: human PPARα reporter cells, overnight incubation, antagonism; read-out: Luciferase IC50.
T1 construct: host or cells: proprietary non-human mammalian cells
T1 sequence (Q07869 1-468): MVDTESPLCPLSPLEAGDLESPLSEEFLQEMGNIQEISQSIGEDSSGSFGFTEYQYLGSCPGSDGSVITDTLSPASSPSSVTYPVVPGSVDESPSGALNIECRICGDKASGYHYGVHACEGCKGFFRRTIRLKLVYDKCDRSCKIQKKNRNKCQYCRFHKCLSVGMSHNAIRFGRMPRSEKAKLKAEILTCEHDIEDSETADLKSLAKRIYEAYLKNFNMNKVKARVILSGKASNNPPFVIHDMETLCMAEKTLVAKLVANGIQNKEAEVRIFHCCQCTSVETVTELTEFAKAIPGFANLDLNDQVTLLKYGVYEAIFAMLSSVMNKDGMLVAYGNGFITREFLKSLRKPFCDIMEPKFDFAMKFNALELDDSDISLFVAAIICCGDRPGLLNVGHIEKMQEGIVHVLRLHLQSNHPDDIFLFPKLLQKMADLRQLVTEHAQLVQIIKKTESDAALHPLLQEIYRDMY
Type: cell-based
Method in brief: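 Non-human mammalian cells constitutively expressing human PPARα with a PPARα-responsive luciferase reporter were dosed with compounds right after plating. After overnight incubation, media removed and detection reagent added; luminescence taken as proportional to PPARα activation, agonist or antagonist mode.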

| SMILES | IC50 |
| --- | --- |
| CCn1c(CCCc2ccc(-c3ccc(NS(=O)(=O)Cc4ccccc4)cn3)cc2)nn(Cc2ccc(C(C)(C)C)cc2)c1=O [Example 79, 1-{[4-(tert-Butyl)phenyl]methyl}-4-ethyl-3-{3-[4-(5-{[benzylsulfonyl]amino}(2-pyridyl))phenyl]propyl}-1,2,4-triazolin-5-one] | 263 nM |
| CCCn1c(CCCc2ccc(-c3ccc(OC)c(CC(=O)O)c3)cc2)nn(Cc2ccc(C(C)(C)C)cc2)c1=O [Example 80, 2-(4′-(3-(1-(4-(tert-Butyl)benzyl)-5-oxo-4-propyl-4,5-dihydro-1H-1,2,4-triazol-3-yl)propyl)-4-methoxy-[1,1′-biphenyl]-3-yl)acetic acid] | 22 nM |
| CCn1c(CCCc2ccc(-c3nccc(NS(=O)(=O)c4ccccc4)n3)cc2)nn(Cc2ccc(C(C)(C)C)cc2)c1=O [Example 81, N-(2-(4-(3-(1-(4-(tert-Butyl)benzyl)-4-ethyl-5-oxo-4,5-dihydro-1H-1,2,4-triazol-3-yl)propyl)phenyl)pyrimidin-4-yl)benzenesulfonamide] | 127 nM |
| CCn1c(CCCc2ccc(-c3cccc(NS(=O)(=O)c4ccc(C(F)(F)F)cc4)n3)cc2)nn(Cc2ccc(C(C)(C)C)cc2)c1=O [Example 82, 1-{[4-(tert-Butyl)phenyl]methyl}-4-ethyl-3-(3-{4-[6-({[4-(trifluoromethyl)phenyl]sulfonyl}amino)(2-pyridyl)]phenyl}propyl)-1,2,4-triazolin-5-one] | 181 nM |
| CCn1c(CCCc2ccc(-c3cccc(NS(=O)(=O)c4ccc(Cl)cc4)n3)cc2)nn(Cc2ccc(C(C)(C)C)cc2)c1=O [Example 83, 1-{[4-(tert-Butyl)phenyl]methyl}-3-{3-[4-(6-{[(4-chlorophenyl)sulfonyl]amino}(2-pyridyl))phenyl]propyl}-4-ethyl-1,2,4-triazolin-5-one] | 60 nM |
| CCn1c(CCCc2ccc(-c3cccc(NS(=O)(=O)c4ccc(OC)cc4)n3)cc2)nn(Cc2ccc(C(C)(C)C)cc2)c1=O [Example 84, 1-{[4-(tert-Butyl)phenyl]methyl}-4-ethyl-3-{3-[4-(6-{[(4-methoxyphenyl)sulfonyl]amino}(2-pyridyl))phenyl]propyl}-1,2,4-triazolin-5-one] | 208 nM |
| CCn1c(CCCc2ccc(-c3cccc(CC(=O)O)c3)cc2)nn(Cc2ccc(C(C)(C)C)c(C3CC3)c2)c1=O [Example 85, 2-(4′-(3-(1-(3-Cyclopropyl-4-(tert-butyl)benzyl)-4-ethyl-5-oxo-4,5-dihydro-1H-1,2,4-triazol-3-yl)propyl)-[1,1′-biphenyl]-3-yl)acetic acid] | 662 nM |
| CCn1c(CCCc2ccc(-c3ccc(NS(=O)(=O)c4ccc(C(F)(F)F)cc4)cn3)cc2)nn(Cc2ccc(C(C)(C)C)cc2)c1=O [Example 86, 1-{[4-(tert-Butyl)phenyl]methyl}-4-ethyl-3-(3-{4-[5-({[4-(trifluoromethyl)phenyl]sulfonyl}amino)(2-pyridyl)]phenyl}propyl)-1,2,4-triazolin-5-one] | 971 nM |
| CCn1c(CCCc2ccc(-c3ccc(OC)c(NS(=O)(=O)Cc4ccccc4)n3)cc2)nn(Cc2ccc(C(C)(C)C)cc2)c1=O [Example 87, 1-{[4-(tert-Butyl)phenyl]methyl}-4-ethyl-3-{3-[4-(5-methoxy-6-{[benzylsulfonyl]amino}(2-pyridyl))phenyl]propyl}-1,2,4-triazolin-5-one] | 10 nM |
| CCn1c(CCCc2ccc(-c3ccc(OC)c(NS(=O)(=O)c4ccc(C(F)(F)F)cc4)n3)cc2)nn(Cc2ccc(C(C)(C)C)cc2)c1=O [Example 88, 1-{[4-(tert-Butyl)phenyl]methyl}-4-ethyl-3-(3-{4-[5-methoxy-6-({[4-(trifluoromethyl)phenyl]sulfonyl}amino)(2-pyridyl)]phenyl}propyl)-1,2,4-triazolin-5-one] | 24 nM |
| CCn1c(CCCc2ccc(-c3ccc4occ(C(=O)O)c4c3)cc2)nn(Cc2ccc(C(C)(C)C)cc2)c1=O [Example 89, 5-(4-(3-(1-(4-(tert-Butyl)benzyl)-4-ethyl-5-oxo-4,5-dihydro-1H-1,2,4-triazol-3-yl)propyl)phenyl)benzofuran-3-carboxylic acid] | 251 nM |
| CCn1c(CCCc2ccc(-c3ccc(NS(=O)(=O)c4ccc(Cl)cc4)cn3)cc2)nn(Cc2ccc(C(C)(C)C)cc2)c1=O [Example 90, 1-{[4-(tert-Butyl)phenyl]methyl}-3-{3-[4-(5-{[(4-chlorophenyl)sulfonyl]amino}(2-pyridyl))phenyl]propyl}-4-ethyl-1,2,4-triazolin-5-one] | 487 nM |
| CCn1c(CCCc2ccc(-c3ccc(NS(=O)(=O)c4ccc(OC)cc4)cn3)cc2)nn(Cc2ccc(C(C)(C)C)cc2)c1=O [Example 91, 1-{[4-(tert-Butyl)phenyl]methyl}-4-ethyl-3-{3-[4-(5-{[(4-methoxyphenyl)sulfonyl]amino}(2-pyridyl))phenyl]propyl}-1,2,4-triazolin-5-one] | 136 nM |
| CCn1c(CCCc2ccc(-c3ccc(OC)c(NS(=O)(=O)c4ccc(Cl)cc4)n3)cc2)nn(Cc2ccc(C(C)(C)C)cc2)c1=O [Example 92, 1-{[4-(tert-Butyl)phenyl]methyl}-3-{3-[4-(6-{[(4-chlorophenyl)sulfonyl]amino}-5-methoxy(2-pyridyl))phenyl]propyl}-4-ethyl-1,2,4-triazolin-5-one] | 5 nM |
| CCn1c(CCCc2ccc(-c3ccc(OC)c(NS(=O)(=O)c4ccc(OC)cc4)n3)cc2)nn(Cc2ccc(C(C)(C)C)cc2)c1=O [Example 93, 1-{[4-(tert-Butyl)phenyl]methyl}-4-ethyl-3-{3-[4-(5-methoxy-6-{[(4-methoxyphenyl)sulfonyl]amino}(2-pyridyl))phenyl]propyl}-1,2,4-triazolin-5-one] | 3 nM |
| CCCOc1ccc(-c2ccc(CCCc3nn(Cc4ccc(C(C)(C)C)cc4)c(=O)n3CC)cc2)cc1CC(=O)O [Example 94, 2-(4′-(3-(1-(4-(tert-Butyl)benzyl)-4-ethyl-5-oxo-4,5-dihydro-1H-1,2,4-triazol-3-yl)propyl)-4-propoxy-[1,1′-biphenyl]-3-yl)acetic acid] | 16 nM |
| CCOc1ccc(-c2ccc(CCCc3nn(Cc4ccc(C(C)(C)C)cc4)c(=O)n3C)cc2)cc1CC(=O)O [Example 95, 2-(4′-(3-(1-(4-(tert-Butyl)benzyl)-4-methyl-5-oxo-4,5-dihydro-1H-1,2,4-triazol-3-yl)propyl)-4-ethoxy-[1,1′-biphenyl]-3-yl)acetic acid] | 15 nM |
| CCn1c(CCCc2ccc(-c3cccc(NC(=O)c4ccccc4)n3)cc2)nn(Cc2ccc(C(C)(C)C)cc2)c1=O [Example 97, N-(6-{4-[3-(1-{[4-(tert-Butyl)phenyl]methyl}-4-ethyl-5-oxo(1,2,4-triazolin-3-yl))propyl]phenyl}(2-pyridyl))benzamide] | 745 nM |
| CCn1c(CCCc2ccc(-c3ccc(NS(=O)(=O)c4ccccc4)c(OC)n3)cc2)nn(Cc2ccc(C(C)(C)C)cc2)c1=O [Example 98, 1-{[4-(tert-Butyl)phenyl]methyl}-4-ethyl-3-[3-(4-{6-methoxy-5-[(phenylsulfonyl)amino](2-pyridyl)}phenyl)propyl]-1,2,4-triazolin-5-one] | 264 nM |
| CCn1c(CCCc2ccc(-c3ccc(S(=O)(=O)NCc4ccccc4)cc3)cc2)nn(Cc2ccc(C(C)(C)C)cc2)c1=O [Example 99, N-benzyl-4′-(3-(1-(4-(tert-butyl)benzyl)-4-ethyl-5-oxo-4,5-dihydro-1H-1,2,4-triazol-3-yl)propyl)-[1,1′-biphenyl]-4-sulfonamide] | 524 nM |
| CCCC(=O)Nc1cccc(-c2ccc(CCCc3nn(Cc4ccc(C(C)(C)C)cc4)c(=O)n3CC)cc2)n1 [Example 100, N-(6-{4-[3-(1-{[4-(tert-Butyl)phenyl]methyl}-4-ethyl-5-oxo-1,2,4-triazolin-3-yl)propyl]phenyl}-2-pyridyl)butanamide] | 712 nM |
| CCn1c(CCCc2ccc(-c3cccc(NC(=O)Cc4ccccc4)n3)cc2)nn(Cc2ccc(C(C)(C)C)cc2)c1=O [Example 101, N-(6-{4-[3-(1-{[4-(tert-Butyl)phenyl]methyl}-4-ethyl-5-oxo(1,2,4-triazolin-3-yl))propyl]phenyl}(2-pyridyl))-2-phenylacetamide] | 402 nM |
| CCn1c(CCCc2ccc(-c3cccc(NC(=O)C4CC4)n3)cc2)nn(Cc2ccc(C(C)(C)C)cc2)c1=O [Example 102, N-(6-{4-[3-(1-{[4-(tert-Butyl)phenyl]methyl}-4-ethyl-5-oxo(1,2,4-triazolin-3-yl))propyl]phenyl}(2-pyridyl))cyclopropylcarboxamide] | 695 nM |
| CCC(=O)NS(=O)(=O)c1cccc(-c2ccc(CCCc3nn(Cc4ccc(C(C)(C)C)cc4)c(=O)n3CC)cc2)c1 [Example 103, N-((4′-(3-(1-(4-(tert-Butyl)benzyl)-4-ethyl-5-oxo-4,5-dihydro-1H-1,2,4-triazol-3-yl)propyl)-[1,1′-biphenyl]-3-yl)sulfonyl)propionamide] | 436 nM |
| CCn1c(CCCc2ccc(-c3ccc(CS(=O)(=O)NCc4ccccc4)cc3)cc2)nn(Cc2ccc(C(C)(C)C)cc2)c1=O [Example 104, N-Benzyl-1-(4′-(3-(1-(4-(tert-butyl)benzyl)-4-ethyl-5-oxo-4,5-dihydro-1H-1,2,4-triazol-3-yl)propyl)-[1,1′-biphenyl]-4-yl)methanesulfonamide] | 591 nM |

Source: patent publication US9505728B2, “Triazolone compounds and uses thereof” (INCEPTION 2, INC., priority 2012, dated 2016)
